Experimental data from publication PMC9264368, “Structural Analysis and Development of Notum Fragment Screening Hits” (ACS Chemical Neuroscience, 2022).
Values after ≈ are worked out from the molar mass of the structure shown. Where two headings read alike, the source gives them in different places.

What was measured:
[1] = parameters: method as in PMID 35536179; settings: mouse liver microsomes; cited from earlier work
[2] = parameters: method as in PMID 35536179; settings: human liver microsomes; cited from earlier work
Notum [3] = target: T1, Notum (Homo sapiens, UniProt Q6P988, C330S); test: biochemical
T1 sequence (Q6P988 81-451 C330S): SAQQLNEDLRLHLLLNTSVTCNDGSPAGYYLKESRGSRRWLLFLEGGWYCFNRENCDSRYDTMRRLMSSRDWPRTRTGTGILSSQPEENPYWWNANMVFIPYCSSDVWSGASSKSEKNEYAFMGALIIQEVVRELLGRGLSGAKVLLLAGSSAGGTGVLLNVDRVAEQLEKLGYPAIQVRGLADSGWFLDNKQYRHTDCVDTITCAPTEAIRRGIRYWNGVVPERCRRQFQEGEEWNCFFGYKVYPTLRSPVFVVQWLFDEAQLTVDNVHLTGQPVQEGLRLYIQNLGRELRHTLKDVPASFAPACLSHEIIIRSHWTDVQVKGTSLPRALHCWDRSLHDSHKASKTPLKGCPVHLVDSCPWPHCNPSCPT

MDCK-MDR1 = test system: MDCK-MDR1; parameters: method as in PMID 35536179; settings: cited from earlier work
[4] = parameters: method as in PMID 35536179; settings: cited from earlier work
[5] = test system: Wnt/β-catenin signaling in the presence of Notum; parameters: method as in PMID 35536179; settings: read-out: EC50, cell-based reporter (TCF/LEF) assay; cited from earlier work
Notum [6] = target: T1, Notum; settings: for LE (ligand efficiency): LE = 1.4(−pIC50)/HAC; for LLE (lipophilic ligand efficiency): LLE = pIC50 – clogP; for LE / LLE: supplementary CSV
[7] = parameters: method as in PMID 33124429; settings: mouse; cited from earlier work
[8] = test system: Wnt/β-catenin signaling in the presence of Notum; settings: read-out: EC50, restoration of Wnt/β-catenin signaling, TCF/LEF reporter
[9] = Notum IC50, OPTS substrate, 10-point curves 30 nM to 1 mM, mean ± s.d. of N = 2–4 unless stated, Table 1 and figures
[10] = pIC50, Table 1, Notum OPTS assay

| SMILES | IC50 (Notum [3]; [9]) [µM] | LE (ligand efficiency) (Notum [6]) | LLE (lipophilic ligand efficiency) (Notum [6]) | LE (Notum [6]) | LLE (Notum [6]) | further results |
| --- | --- | --- | --- | --- | --- | --- |
| OCc1cn(-c2ccc(Cl)c(Cl)c2)nn1 [compound 7] | < 10 |  |  |  |  | MLM Cli [1]: 88 µL/min/mg protein; HLM Cli [2]: 12 µL/min/mg protein; Papp AB (MDCK-MDR1; MDCK-MDR1, AB): 57 × 10^–6 cm/s; Papp BA (MDCK-MDR1; MDCK-MDR1, BA): 59 × 10^–6 cm/s; aqueous solubility [4]: 100 mg/mL (≈ 410 mM) |
| FC(F)(F)c1c(Cl)ccc(-n2ccnn2)c1Cl [7d] |  |  |  |  |  | EC50 [5]: 0.11 ± 0.1 µM |
| CCn1c(NC(C)=O)nc2ccccc21 [compound 57] | 260 ± 51 | 0.33 | 1.5 | 0.33 | 1.5 | IC50 (Notum [3]; [10]): 316 µM |
| N#CCN1CCN(c2cccc(Cl)c2)CC1 [compound 23] | 600 ± 59 | 0.28 | 0.7 |  | 0.7 |  |
| Oc1nnc(-c2ccc(Cl)c(C(F)(F)F)c2)o1 [7a] |  |  |  |  |  | brain penetration [7]: only partial; plasma exposure [7]: good |
| CCc1noc(C)c1C(=O)Nc1cc(C)on1 [compound 53] | 980 ± 17 | 0.25 | 2.7 | 0.25 | 2.7 |  |
| Cc1nc2ccccn2c1C(=O)NCC(C)C [compound 10] | 700 ± 100 | 0.26 | 0.6 | 0.26 | 0.6 |  |
| Nc1ccccc1OCc1ccccc1 [compound 13, 2-(Benzyloxy)aniline] | 280 ± 110 | 0.33 | 0.6 | 0.33 | 0.6 |  |
| CCc1ccc(OCC(=O)N2CCCCC2)cc1 [compound 31] | 120 ± 30 | 0.30 | 0.7 | 0.3 | 0.7 |  |
| Cc1cccc2[nH]c(NC#N)nc12 [15a, N-(4-Methyl-1H-benzo[d]imidazol-2-yl)cyanamide] | 0.94 ± 0.06 |  |  |  |  | fold improvement in Notum inhibition (Notum [6]; versus parent: 7 vs 26, 16a vs 16, 15a vs 15, 7c vs 7b): 18 fold |
| COCC(=O)NCc1ccccc1 [compound 41] | 68 ± 5.4 | 0.45 | 3.2 | 0.45 | 3.2 |  |
| COC(=O)c1ccccc1Oc1ccc(N)cc1 [compound 6, Methyl 2-(4-aminophenoxy)benzoate] | 260 ± 120 | 0.28 | 0.9 | 0.28 | 0.9 |  |
| Oc1c(F)cc(F)cc1-c1cc[nH]n1 [compound 16] | 3.3 ± 0.4 | 0.55 | 3.6 | 0.55 | 3.6 | IC50 (Notum [3]; [10]): 3.16 µM |
| OCc1cn(-c2ccc(Cl)c(C(F)(F)F)c2)nn1 [7b, (1-(4-Chloro-3-(trifluoromethyl)phenyl)-1H-1,2,3-triazol-4-yl)methanol] |  |  |  |  |  | EC50 [8]: 1.6 ± 1.2 µM |
| Cc1ccccc1CNc1nnnn1C [compound 54] | 78 ± 8.2 | 0.38 | 2.0 | 0.38 | 2 |  |
| COc1ccc(CNC(=O)[C@@H]2CCCO2)cc1 [compound 43] | 87 ± 47 | 0.34 | 2.7 | 0.34 | 2.7 |  |
